The source of these data is US9285358B2, “Vitro method for high throughput screening of genotoxic agents in eukaryotic cells” (ANTHEM BIOSCIENCES PVT LTD, priority 2011, dated 2016).

Structures are written as SMILES. Like-named read-outs stand apart in the source and are kept apart here.

Data set [1] concerns HCT116-p21RLuc-GADD153hFLuc-p53Bgal cells. Briefly: Anthem's Genotox assay (reporter gene induction p21-RLuc, GADD153-hFLuc, p53-Bgal). As to conditions: for Anthem's Genotox assay: LEC in μg/ml (genotoxic lowest effective test concentration): at least one reporter induction above 1.5 fold threshold. The protocol: The assay protocol standardized by us is described here. A stock of the test compound is prepared in 2% v/v solvents (including but not limited to DMSO or PBS) and this stock is used to make serial dilutions for the assay. […] The test compound is assayed for cell viability by standard cell viability/cytotoxicity assays (for example MTT assay as shown in the graphs).
The MTT assay is performed using the MTT reagent (Sigma) dissolved in PBS (5 mg/ml). Briefly, the Genotox sensor cells are incubated with ten fold serial dilutions of the test compound in a 96-well microplate. After 24 h of incubation, 10 μl of the MTT solution is added to each well of the 96-well plate and incubated for 1 hour at 37° C. The medium is discarded (in a fume hood) and 100 μl DMSO is added to the wells. The plate is shaken for 10 min and absorbance is measured at 540 nm.
For the genotoxicity assay, 16 h prior to compound treatment, the engineered Anthem's Genotox sensor cells are seeded in 96-well microplates (10,000 cells per well). […] The test compound is added in two-fold serial dilutions and the microplate is incubated at 37 C, 5% CO2 and 95% humidity for 24 or 48 h depending on the experiment requirements.
The cells are lysed after 24 or 48 h with the 60 μl of lysis buffer per well (the lysis buffer composition has been optimized at Anthem Biosciences to be compatible with luciferase and beta galactosidase assays; 50 ml of Lysis buffer contains 7.5 ml of 1M HEPES at pH 8.0, 125 μl of Triton X 100, 50 mg of Porcine gelatin, 5 ml of glycerol and 25 μl of Antifoam). For each of the luciferase assays (Renilla and Firefly luciferase) 10 μl of the lysate is used, while 30 μl of the lysate is used for the beta galactosidase assay and total protein is estimated using the remaining 10 μl of the lysate by Bradford reagent.
The Renilla luciferase assay is performed using luciferase assay buffer (0.5 M NaCl, 0.1 M Potassium phosphate buffer pH 7.2, 1 mM Di-Sodium EDTA, 1 mg/mL porcine gelatin, 50 mM Potassium iodide) containing 1 μg/well coelentrazine (1 mg/ml stock prepared in 100% methanol). The firefly luciferase assay is performed with the same luciferase assay buffer containing 100 μM D luciferin, 150 μM ATP and 80 μM Coenzyme A. The assay plate is gently shaken for 10 minutes on a microplate shaker (to fully mix the contents of each well). Then the plate is taken to the microplate reader and the luminescence data are collected from the microplates. […] The Luminiscence data are collected with an integration time of 10 seconds and a delay of 2 seconds.
The beta galactosidase assay is carried out with Z assay buffer (50 ml buffer contains 0.4265 g of Na2HPO4, 0.275 g of NaH2PO4, 500 μl of 1M KCl, 50 μl of 1M MgSO4; for every 10 ml, 27 μl of Beta mercaptoethanol is added) and the substrate […] ONPG (1 ml of 10× ONPG stock-20 mg/ml). Once the yellow colour develops, 50 μl 1M Na2CO3 is added per well and the reading is taken at A420.
The luminescence and absorbance data are transported into Microsoft excel spreadsheet and the fold change in the reporter gene expressions is calculated by normalizing with the data from vehicle treated control wells. The graph is plotted with test compound concentrations on X axis, cell viability percentage (from MTT assay) on primary Y axis and reporter gene fold induction on the secondary Y axis. […] The genotoxicity threshold is not calculated for test concentrations that result in less than 50% cell viability. […]
Background: Reporter assays use an easily measured gene product as a stand-in for the process of interest.

Data set [2] shares this test system. As to conditions: 24 h, MA: metabolic activation using S9 fraction mix.
Description: The luminescence and absorbance data are transported into Microsoft excel spreadsheet and the fold change in the reporter gene expressions is calculated by normalizing with the data from vehicle treated control wells. The graph is plotted with test compound concentrations on X axis, cell viability percentage (from MTT assay) on primary Y axis and reporter gene fold induction on the secondary Y axis. […] The genotoxic threshold is set at 1.5 fold change (i.e. 50% more than vehicle treated control). The genotoxic LEC is the lowest effective test concentration that produced at least one of the reporter gene inductions of more than 1.5 threshold. The genotoxicity threshold is not calculated for test concentrations that result in less than 50% cell viability. […]
The genotoxic potential of metabolites of test compounds is assessed by incubating the compound in the Anthem's Genotox sensor cells for 3 hours with S9 of Aroclor 1254-treated rats (1% mix), procured from Moltox, Cat #11-101.5. […]
10^3 cells were seeded per well in 100 μl of McCoy's media with 10% FBS was incubated overnight (37° C., 5% CO2, 100% humidity) in a 96-well plates (as two sets). […] The plate was gently shaken for 10 minutes on a microplate shaker and then taken to the microplate reader to obtain the luminescence reading. […]
The mark [3] stands for this setting: assay time 24 h, no metabolic activation.

For the molecule `Nc1ccn([C@@H]2O[C@H](CO)[C@@H](O)[C@@H]2O)c(=O)n1` [AraC arabinoside], the “Anthem's Genotox assay: promoter(s) that was(were) induced” value in data set [1] was “p21”.
Take `O=P1(N(CCCl)CCCl)NCCCO1` (stereo not shown) [Cyclophosphamide]: in data set [2], the “Anthem's Genotox assay: LEC in μg/ml (genotoxic lowest effective test concentration)” value (“Anthem's Genotox assay: LEC in μg/ml” for short) is more than 55.82 µg/mL and the “Anthem's Genotox assay: Result (assay time in h)” value was “+ (positive for genotoxicity)”.
Take `COc1cc([C@@H]2c3cc4c(cc3[C@@H](O[C@@H]3O[C@@H]5CO[C@@H](C)O[C@H]5[C@H](O)[C@H]3O)[C@H]3COC(=O)[C@H]23)OCO4)cc(OC)c1O` [Etoposide]: the “Anthem's Genotox assay: LEC in μg/ml” value in data set [1] (setting [3]) came to 6.25 µg/mL.
For `CC1COc2c(N3CCN(C)CC3)c(F)cc3c(=O)c(C(=O)O)cn1c23` (stereo not shown) [Ofloxacin], the “Anthem's Genotox assay: LEC in μg/ml” value in data set [1] (setting [3]) turned out to be 750.0 µg/mL. Moreover, the “Anthem's Genotox assay: Result (assay time in h)” value in data set [1] (assay time 24 h, no metabolic activation, positive when reporter gene induction over 1.5 fold) is on record as “+ (positive for genotoxicity)”.
For `O=c1c(O)c(-c2ccc(O)c(O)c2)oc2cc(O)cc(O)c12` [Querceti3n], the “Anthem's Genotox assay: promoter(s) that was(were) induced” value in data set [1] is recorded as “GADD153”.
